# Measured values from patent publication US20080187575A1 (priority 2004, published 2008).
# Test system: pathogenic form of the prion protein PrP^Sc in prion infected cells (3F4-ScN2a)
# Type: cell-based, mouse
# Conditions: for amount of PrP^Sc in prion infected cells: concentration range between 5 and 20 μM (final concentration), three days; for activity of prion propagation (FIG. 5): within concentration range 5 to 20 μM
smiles,measurement,value
"Cc1ccc(N)cc1Nc1nccc(-c2cccnc2)n1 [Compound 4, 4-Methyl-N-3-(4-pyridin-3-yl-pyrimidin-2-yl)-benzene-1,3-diamine]",amount of PrP^Sc in prion infected cells,significantly reduced
same,activity of prion propagation (FIG. 5),inhibit almost completely
"O=S(=O)(Nc1cccc(Nc2nccc(-c3ccncc3)n2)c1)c1ccc(Cl)cc1 [Compound 37, 4-Chloro-N-[3-(4-pyridin-4-yl-pyrimidin-2-ylamino)-phenyl]-benzenesulfonamide]",amount of PrP^Sc in prion infected cells,significantly reduced
same,activity of prion propagation (FIG. 5),inhibit almost completely
"Cc1ccc(NC(=O)c2ccc(CCl)cc2)cc1Nc1nccc(-c2cccnc2)n1 [Compound 5, 4-Chloromethyl-N-[4-methyl-3-(4-pyridin-3-yl-pyrimidin-2-ylamino)-phenyl]-benzamide]",amount of PrP^Sc in prion infected cells,significantly reduced
same,activity of prion propagation (FIG. 5),inhibit almost completely
